According to patent publication US6723364B1, “Fog treatment method using a liquid composition for treating fruits and vegetables and implementing device” (Xeda International, priority 1998, dated 2004):
Values after ≈ are worked out from the molar mass of the structure shown.

test system: Penicillium expansum; experiment: Germination of the spores in vitro; format: cell-based; settings: PE; x = 1280 μg/ml;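 note: ++ germination like control and 0 no spores germinated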
Procedure: (§1) The activity of eugenol and of isoeugenol on the germination of the spores was evaluated in vitro and compared with that of other terpenes.
(§2) The procedure of Example 4 is used to do this, except that the concentration of eugenol and of isoeugenol was set at x μg/ml in the culture media used and that 50 μl of a suspension of spores, adjusted to 100,000 spores/ml, are deposited in each Petri dish.
(§3) The same experiment was carried out starting with a terpene-free culture medium (control test).
(§4) The results were evaluated using the following assessment criteria:
(§5) +: considerable reduction in the level of spores germinated
(§6) The results obtained for 3 different concentrations of terpenes in the culture medium, namely 40 μg/ml, 80 μg/ml and 1280 μg/ml, are listed in Tables 4, 5 and 6.

Compound | germination of the spores
CC12CCC(CC1)C(C)(C)O2 [EUCALYPTOL, eucalyptol] | +

test system: Fusarium oxysporum; experiment: Germination of the spores in vitro; format: cell-based; settings: FO; x = 40 μg/ml;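 note: ++ germination like control and 0 no spores germinated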
Procedure: as §1, §2, §3, §4, §5, §6

Compound | germination of the spores
CC12CCC(CC1)C(C)(C)O2 [EUCALYPTOL, eucalyptol] | ++

same assay, conditions: FO; x = 80 μg/ml

Compound | germination of the spores
CC12CCC(CC1)C(C)(C)O2 [EUCALYPTOL, eucalyptol] | ++

same assay, conditions: FO; x = 1280 μg/ml

Compound | germination of the spores
CC12CCC(CC1)C(C)(C)O2 [EUCALYPTOL, eucalyptol] | 0

test system: Geocrichum candidum; experiment: Germination of the spores in vitro; format: cell-based; settings: GC; x = 40 μg/ml
Procedure: as §1, §2, §3, §4, §5, §6

Compound | germination of the spores
CC12CCC(CC1)C(C)(C)O2 [EUCALYPTOL, eucalyptol] | ++

same assay, conditions: GC; x = 80 μg/ml

Compound | germination of the spores
CC12CCC(CC1)C(C)(C)O2 [EUCALYPTOL, eucalyptol] | +

same assay, conditions: GC; x = 1280 μg/ml

Compound | germination of the spores
CC12CCC(CC1)C(C)(C)O2 [EUCALYPTOL, eucalyptol] | 0

test system: Penicillium digitatum; experiment: Germination of the spores in vitro; format: cell-based; settings: PD; x = 40 μg/ml
Procedure: as §1, §2, §3, §4, §5, §6

Compound | germination of the spores
CC12CCC(CC1)C(C)(C)O2 [EUCALYPTOL, eucalyptol] | +

same assay, conditions: PD; x = 80 μg/ml

Compound | germination of the spores
CC12CCC(CC1)C(C)(C)O2 [EUCALYPTOL, eucalyptol] | +

same assay, conditions: PD; x = 1280 μg/ml

Compound | germination of the spores
CC12CCC(CC1)C(C)(C)O2 [EUCALYPTOL, eucalyptol] | +

test system: Phlyctaena vagabonda (“Gloeosporium”); experiment: Germination of the spores in vitro; format: cell-based; settings: PV; x = 40 μg/ml;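 note: ++ germination like control and 0 no spores germinated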
Procedure: as §1, §2, §3, §4, §5, §6

Compound | germination of the spores
CC12CCC(CC1)C(C)(C)O2 [EUCALYPTOL, eucalyptol] | ++

same assay, conditions: PV; x = 80 μg/ml

Compound | germination of the spores
CC12CCC(CC1)C(C)(C)O2 [EUCALYPTOL, eucalyptol] | +

same assay, conditions: PV; x = 1280 μg/ml

Compound | germination of the spores
CC12CCC(CC1)C(C)(C)O2 [EUCALYPTOL, eucalyptol] | 0

test system: Botrytis cinerea; experiment: Germination of the spores in vitro; format: cell-based; settings: BC; x = 40 μg/ml
Procedure: as §1, §2, §3, §4, §5, §6

Compound | germination of the spores
CC12CCC(CC1)C(C)(C)O2 [EUCALYPTOL, eucalyptol] | ++

same assay, conditions: BC; x = 80 μg/ml

Compound | germination of the spores
CC12CCC(CC1)C(C)(C)O2 [EUCALYPTOL, eucalyptol] | ++

same assay, conditions: BC; x = 1280 μg/ml

Compound | germination of the spores
CC12CCC(CC1)C(C)(C)O2 [EUCALYPTOL, eucalyptol] | 0

test system: Escherichia coli; experiment: Bactericidal activity in vitro in LB agar medium; format: cell-based; settings: Escherichia sp., 37° C., read-out: MIC (concentration needed to completely inhibit the growth of the bacteria)
Procedure: (§7) The bactericidal activity of eugenol and isoeugenol was evaluated in vitro and compared with that of other terpenes.
(§8) The culture medium used is the following LB medium:
(§9) Bactotryptone: 1% by weight
(§10) Yeast extract: 0.5% by weight
(§11) A suspension of bacteria at 10^6 CFU/ml was prepared in sterilized water from the LB medium. 200 μl of this bacterial suspension were added to 20 ml of presterilized LB culture medium brought to 55° C. The tested terpene is then added to the culture medium. After agitation, the medium is immediately divided among Petri dishes. The medium solidifies on cooling.
(§12) Incubation is carried out at 28° C. when the bacterium is Erwinia carotovora and at 37° C. when the bacterium is Escherichia coli.
(§13) The growth of mould in the culture medium is observed. The same experiment is carried out in the absence of terpene (control experiment).
(§14) The protocol used is that described above.

Compound | MIC
CC12CCC(CC1)C(C)(C)O2 [EUCALYPTOL, eucalyptol] | > 640 µg/mL

test system: Erwinia carotovora; experiment: Bactericidal activity in vitro in LB agar medium; format: cell-based; settings: Concentration 20 μg/ml; 28° C.
Procedure: as §7, §8, §9, §10, §11, §12, §13
The results are evaluated using the following assessment scale:
++: mould growth identical to the control
+: mould present with a marked reduction in growth with respect to the control
: complete absence of growth.
The results obtained for 3 different concentrations, namely 20, 80 and 320 μg/ml, in the case of the bacterium Erwinia carotovora are summarized in Table 7.
as §14

Compound | growth in the culture medium with respect to the control
CC12CCC(CC1)C(C)(C)O2 [EUCALYPTOL, eucalyptol] | ++

same assay, conditions: Concentration 80 μg/ml; 28° C.

Compound | growth in the culture medium with respect to the control
CC12CCC(CC1)C(C)(C)O2 [EUCALYPTOL, eucalyptol] | ++

same assay, conditions: Concentration 320 μg/ml; 28° C.

Compound | growth in the culture medium with respect to the control
CC12CCC(CC1)C(C)(C)O2 [EUCALYPTOL, eucalyptol] | ++

same assay, conditions: Pectobacterium carotovorum; Erwinia sp.; 28° C.; read-out: MIC (concentration needed to completely inhibit the growth of the bacteria)

Compound | MIC
CC12CCC(CC1)C(C)(C)O2 [EUCALYPTOL, eucalyptol] | 320 to 640 µg/mL (≈ 2.07 to 4.15 mM)

test system: species of fungus (AA, BC, FO, GC, GR, PD, PE, PV, PhP); experiment: Fungicidal activity in vitro: total of inhibition grades over the nine species of fungus; format: cell-based; settings: sum of the grades over the nine fungi
Procedure: The Cristomalt medium used for the evaluations of the fungicidal activities comprises 0.1% of Cristomalt (malt extract) and 0.2% of agar.
This culture medium is, after sterilization, brought to 55° C. The terpene compound tested is then introduced in the pure form into the culture medium under warm conditions. Immediately after agitating, the medium, enriched with the terpene product, is poured into Petri dishes (diameter 9 cm, filled with 20 ml of medium). The agar-comprising medium solidifies on cooling. The Petri dishes are then inoculated with plugs, with a diameter of 6 mm, withdrawn from the edge of a culture of the tested fungus, which culture is obtained on Cristomalt medium.
Inoculation is carried out at 22° C.
The mycelial growth was determined periodically (5 to 15 days, according to the species of fungus).
The results obtained are analysed simply by using the assessment scale illustrated in Table 2:
The results obtained have been expressed in Table 3 using the scale in Table 2.

Compound | Total of the degrees of inhibition
CC12CCC(CC1)C(C)(C)O2 [EUCALYPTOL, eucalyptol] | 20
